According to patent US6919299B2, “Synergistic herbicidal compositions” (Bayer CropScience GmbH, priority 2001, dated 2005):

Experiments:
Assay type in all cases: in vivo
Echinocloa crus galli = assay: Outdoor post-emergence herbicidal trial, ECHCG; conditions: outdoors
Procedure: (§1) Outdoors, crop plants were grown on plots of a size of from 5 to 10 m^2 on various soils and under various climatic conditions, and the natural presence of harmful plants and/or their seeds in the soil was utilized for the experiments. The treatment with the compositions according to the invention or the herbicides A and B applied individually was carried out after emergence of the harmful and the crop plants, in general at the 2- to 4-leaf stage. The active compounds or active compound combinations, formulated as WG, WP or EC, were applied by the post-emergence method. After 2 to 8 weeks, visual evaluation was carried out in comparison with an untreated comparative group. […] In addition, the herbicidal activities of the compositions according to the invention exceed the expected values according to Colby.
(§2) If the observed activity values of the mixtures already exceed the formal sum of the values for the trials with individual applications, they also exceed the expected value according to Colby which is calculated using the following formula (cf. S. R. Colby; in Weeds 15 (1967) pp. 20 to 22): E=A+B−(A×B/100)
(§3) The figures denote: • A, B=Activity of components A and B in percent, at a dosage of a and b gram of ai/ha, respectively. • E=Expected value in % at a dosage of a+b gram of ai/ha.

Polygonum convolvulus = assay: Outdoor post-emergence herbicidal trial, POLCO; conditions: Example B.V, outdoors
Procedure: as §1, §2, §3

Matricaria spec = assay: Outdoor post-emergence herbicidal trial, MATCH; conditions: Example B.V, outdoors
Procedure: as §1, §2, §3

Abutilon theophrasti = assay: Outdoor post-emergence herbicidal trial, ABUTH; conditions: outdoors
Procedure: as §1, §2, §3

Sorghum halepense = assay: Outdoor post-emergence herbicidal trial, SORHA; conditions: Example B.VII, outdoors
Procedure: as §1, §2, §3

Papaver rhoeas = assay: Outdoor post-emergence herbicidal trial, PAPRH; conditions: Example B.I, outdoors
Procedure: as §1, §2, §3

Portulaca oleracea = assay: Outdoor post-emergence herbicidal trial, POROL; conditions: Example B.VI, outdoors
Procedure: as §1, §2, §3

Galium aparine = assay: Outdoor post-emergence herbicidal trial, GALAP; conditions: Example B.I, outdoors
Procedure: as §1, §2, §3

Digitaria sanguinalis = assay: Outdoor post-emergence herbicidal trial, DIGSA; conditions: Example B.VII, outdoors
Procedure: as §1, §2, §3

Setaria faberi = assay: Outdoor post-emergence herbicidal trial, SETFA; conditions: Example B.II, outdoors
Procedure: as §1, §2, §3

Amaranthus retroflexus = assay: Outdoor post-emergence herbicidal trial, AMARE; conditions: Example B.VI, outdoors
Procedure: as §1, §2, §3

Brassica napus = assay: Outdoor post-emergence herbicidal trial, BRAPP; conditions: Example B.II, outdoors
Procedure: as §1, §2, §3

[1] = Example B.III, B2.2 840 g ai/ha

Compound: CS(=O)(=O)c1ccc(C(=O)C2C(=O)CCCC2=O)c(Cl)c1COCC(F)(F)F [Component A, 2-[2-chloro-3-(2,2,2-trifluoroethoxymethyl)-4-methylsulfonylbenzoyl]cyclohexane-1,3-dione]
- found (herbicidal activity) (Echinocloa crus galli; Example B.III, A 100 g ai/ha): 98%
- found (herbicidal activity) (Echinocloa crus galli; Example B.IV, A 100 g ai/ha): 98%
- found (herbicidal activity) (Polygonum convolvulus; A 38 g ai/ha): 50%
- found (herbicidal activity) (Matricaria spec; A 38 g ai/ha): 45%
- found (herbicidal activity) (Abutilon theophrasti; Example B.III, A 100 g ai/ha): 75%
- found (herbicidal activity) (Abutilon theophrasti; Example B.IV, A 100 g ai/ha): 75%
- found (herbicidal activity) (Sorghum halepense; A 75 g ai/ha): 50%
- found (herbicidal activity) (Papaver rhoeas; A 75 g ai/ha): 0%
- found (herbicidal activity) (Portulaca oleracea; A 75 g ai/ha): 50%
- found (herbicidal activity) (Galium aparine; A 75 g ai/ha): 50%
- found (herbicidal activity) (Digitaria sanguinalis; A 75 g ai/ha): 46%
- found (herbicidal activity) (Setaria faberi; A 100 g ai/ha): 65%
- found (herbicidal activity) (Amaranthus retroflexus; A 75 g ai/ha): 90%
- found (herbicidal activity) (Brassica napus; A 100 g ai/ha): 68%

Compound: COc1cc(OC)nc(NC(=O)NS(=O)(=O)c2ncccc2C(=O)N(C)C)n1 [Component B1.9, nicosulfuron]
- found (herbicidal activity) (Sorghum halepense; B1.9 40 g ai/ha): 62%
- found (herbicidal activity) (Portulaca oleracea; B1.9 40 g ai/ha): 0%
- found (herbicidal activity) (Digitaria sanguinalis; B1.9 40 g ai/ha): 50%
- found (herbicidal activity) (Amaranthus retroflexus; B1.9 40 g ai/ha): 90%

Compound: CCNc1nc(Cl)nc(NC(C)C)n1 [Component B2.2, atrazine]
- found (herbicidal activity) (Echinocloa crus galli; [1]): 0%
- found (herbicidal activity) (Echinocloa crus galli; Example B.IV, B2.2 840 g ai/ha): 0%
- found (herbicidal activity) (Abutilon theophrasti; [1]): 20%
- found (herbicidal activity) (Abutilon theophrasti; Example B.IV, B2.2 840 g ai/ha): 20%
- found (herbicidal activity) (Papaver rhoeas; B2.2 200 g ai/ha): 60%
- found (herbicidal activity) (Galium aparine; B2.2 200 g ai/ha): 30%
- found (herbicidal activity) (Setaria faberi; B2.2 840 g ai/ha): 5%
- found (herbicidal activity) (Brassica napus; B2.2 840 g ai/ha): 0%

Compound: N#Cc1cc(Br)c(O)c(Br)c1 [Component B2.3, bromoxynil]
- found (herbicidal activity) (Polygonum convolvulus; B2.3 100 g ai/ha): 45%
- found (herbicidal activity) (Matricaria spec; B2.3 100 g ai/ha): 55%
